Like-named read-outs stand apart in the source and are kept apart here.
Columns and labels:
[1] = tested on: endothelial tube formation in co-cultures of ECFCs and ADSCs treated with VEGF; assay: cells; format: cell-based, human
HeLa cells = assay: cells; format: cell-based
DLD-1 = assay: cells; format: cell-based
SW480 = assay: cells; format: cell-based
HCT116 = assay: cells; format: cell-based
[2] = tested on: HCT116 cells treated with a GSK3β inhibitor; assay: cells; format: cell-based
Colo320 = assay: cells; format: cell-based
HT-29 = assay: cells; format: cell-based
RKO = assay: cells; format: cell-based
SNU-C1 = assay: cells; format: cell-based
[3] = tested on: ECFC/ADSC co-culture cell nuclei number
INS-1E cells = assay: cells; format: cell-based, rat; details: 5 mM glucose; for 5mMGluc_INS1E SecretionMod IC50/EC50: assay number 8
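Wherever 5mMGluc INS1E SecretionMod IC50/EC50 is given: secreted insulin quantified by homogeneous immunoassay.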
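Wherever IC50/EC50, 5mMGluc INS1E SecretionMod (assay number 8) is given: secreted insulin quantified by homogeneous immunoassay.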

## OC[C@H]1O[C@@H](n2cnc3c(=S)nc[nH]c32)[C@H](O)[C@@H]1O [NCGC00096122-05]
[1]
  IC50/EC50, VEGF_ADSC\ECFC Angio CD31 TubeArea (assay number 2): 1.4206 µM
HeLa cells; 2N
  IC50/EC50, Hela CellCycMod PI 2N (assay number 14): > 10 µM
HeLa cells; 4N
  IC50/EC50, Hela CellCycMod PI 4N (assay number 16): > 10 µM
HeLa cells; Cell Number
  IC50/EC50, Hela CellCycMod PI Cell Number (assay number 18): > 10 µM
HeLa cells; MI
  IC50/EC50, Hela CellCycMod PI MI (assay number 17): > 10 µM
HeLa cells; S Phase
  IC50/EC50, Hela CellCycMod PI S Phase (assay number 15): > 10 µM
DLD-1; basal
  IC50/EC50, Basal_Viability ATP DLD-1 (assay number 23): 0.06302 µM
SW480; basal
  IC50/EC50, Basal_Viability ATP SW480 (assay number 24): 0.02867 µM
HCT116; basal
  IC50/EC50, Basal_Viability ATP HCT116 (assay number 25): 0.02858 µM
[2]; GSK3b inh pretreated
  IC50/EC50, GSK3b inh pretreated_Viability ATP HCT116 (assay number 26): 0.5044 µM
Colo320; basal
  IC50/EC50, Basal_Viability ATP Colo 320 (assay number 27): 1.064 µM
HT-29; basal
  IC50/EC50, Basal_Viability ATP HT-29 (assay number 28): 0.1181 µM
RKO; basal
  IC50/EC50, Basal_Viability ATP RKO (assay number 29): 0.01437 µM
SNU-C1; basal
  IC50/EC50, Basal_Viability ATP SNU-C1 (assay number 30): 2.185 µM
[3]
  IC50/EC50, VEGF_ADSC\ECFC Angio Hoechst NucArea (assay number 3): > 10 µM

## CC(C(O)c1ccccc1)N(C)CCOC(c1ccccc1)c1ccccc1 (stereo not drawn) [NCGC00181913-02]
INS-1E cells
  5mMGluc_INS1E SecretionMod IC50/EC50: > 33.33 µM

## CCN1CCCC(OC(=O)C(c2ccccc2)c2ccccc2)C1 (stereo not drawn) [NCGC00178395-04]
INS-1E cells
  5mMGluc_INS1E SecretionMod IC50/EC50: 18.2267 µM

## CCCCN(CCCC)C(C(N)=O)c1ccc(OC)cc1 (stereo not drawn) [NCGC00261978-01]
INS-1E cells
  5mMGluc_INS1E SecretionMod IC50/EC50: > 33.33 µM

## C[C@@H](CN(C)C)CN1c2ccccc2Sc2ccccc21.C[C@@H](CN(C)C)CN1c2ccccc2Sc2ccccc21.O=C(O)C(O)C(O)C(=O)O [NCGC00178737-05]
INS-1E cells
  IC50/EC50, 5mMGluc_INS1E SecretionMod (assay number 8): > 33.33 µM

## CN1C(=O)CC[C@H]1c1cccnc1 [NCGC00093739-13]
INS-1E cells
  5mMGluc_INS1E SecretionMod IC50/EC50: > 33.33 µM

## CN(C)CCOC(C)(c1ccccc1)c1ccccn1.O=C(O)CCC(=O)O (stereo not drawn) [NCGC00021147-11]
INS-1E cells
  5mMGluc_INS1E SecretionMod IC50/EC50: > 33.33 µM

## CCCCC(CC)CN=C(N)NC(N)=NCCCCCCN=C(N)NC(N)=NCC(CC)CCCC (stereo not drawn) [NCGC00178352-06]
[1]
  IC50/EC50, VEGF_ADSC\ECFC Angio CD31 TubeArea (assay number 2): 0.4078 µM
HeLa cells
  IC50/EC50, Hela CellCycMod PI 2N (assay number 14): > 10 µM
  IC50/EC50, Hela CellCycMod PI 4N (assay number 16): > 10 µM
  IC50/EC50, Hela CellCycMod PI Cell Number (assay number 18): 0.0186 µM
  IC50/EC50, Hela CellCycMod PI MI (assay number 17): > 10 µM
  IC50/EC50, Hela CellCycMod PI S Phase (assay number 15): > 10 µM
DLD-1
  IC50/EC50, Basal_Viability ATP DLD-1 (assay number 23): 0.0197 µM
SW480
  IC50/EC50, Basal_Viability ATP SW480 (assay number 24): 0.3327 µM
HCT116
  IC50/EC50, Basal_Viability ATP HCT116 (assay number 25): 0.7096 µM
[2]
  IC50/EC50, GSK3b inh pretreated_Viability ATP HCT116 (assay number 26): 0.3963 µM
Colo320
  IC50/EC50, Basal_Viability ATP Colo 320 (assay number 27): 0.0041 µM
HT-29
  IC50/EC50, Basal_Viability ATP HT-29 (assay number 28): 0.0302 µM
RKO
  IC50/EC50, Basal_Viability ATP RKO (assay number 29): 0.2228 µM
SNU-C1
  IC50/EC50, Basal_Viability ATP SNU-C1 (assay number 30): 0.0941 µM
[3]
  IC50/EC50, VEGF_ADSC\ECFC Angio Hoechst NucArea (assay number 3): > 10 µM

## O=[N+]([O-])c1ccc(Oc2ccc(N=C=S)cc2)cc1 [NCGC00182049-02]
[1]
  VEGF_ADSC\ECFC Angio CD31 TubeArea IC50/EC50: 3.7244 µM
HeLa cells; assay number 14, 2N
  Hela CellCycMod PI 2N IC50/EC50: > 10 µM
HeLa cells; assay number 15, S phase
  Hela CellCycMod PI S Phase IC50/EC50: > 10 µM
HeLa cells; assay number 16, 4N
  Hela CellCycMod PI 4N IC50/EC50: > 10 µM
HeLa cells; assay number 17, MI
  Hela CellCycMod PI MI IC50/EC50: > 10 µM
HeLa cells; assay number 18, cell number
  Hela CellCycMod PI Cell Number IC50/EC50: > 10 µM
DLD-1; assay number 23, basal
  Basal_Viability ATP DLD-1 IC50/EC50: 2.102 µM
SW480; assay number 24, basal
  Basal_Viability ATP SW480 IC50/EC50: 1.634 µM
HCT116; assay number 25, basal
  Basal_Viability ATP HCT116 IC50/EC50: 2.772 µM
[2]; assay number 26, GSK3b inhibitor pretreated
  GSK3b inh pretreated_Viability ATP HCT116 IC50/EC50: 1.472 µM
Colo320; assay number 27, basal
  Basal_Viability ATP Colo 320 IC50/EC50: 1.465 µM
HT-29; assay number 28, basal
  Basal_Viability ATP HT-29 IC50/EC50: 1.0654 µM
RKO; assay number 29, basal
  Basal_Viability ATP RKO IC50/EC50: 2.341 µM
SNU-C1; assay number 30, basal
  Basal_Viability ATP SNU-C1 IC50/EC50: 4.3298 µM
[3]
  VEGF_ADSC\ECFC Angio Hoechst NucArea IC50/EC50: > 10 µM

## CO[C@@]12[C@H](COC(N)=O)C3=C(C(=O)C(C)=C(N)C3=O)N1C[C@@H]1N[C@@H]12 [NCGC00163468-05]
[1]
  VEGF_ADSC\ECFC Angio CD31 TubeArea IC50/EC50: 0.1019 µM
HeLa cells
  Hela CellCycMod PI 2N IC50/EC50: 0.0133 µM
  Hela CellCycMod PI 4N IC50/EC50: > 10 µM
  Hela CellCycMod PI Cell Number IC50/EC50: 0.07733 µM
  Hela CellCycMod PI MI IC50/EC50: > 10 µM
  Hela CellCycMod PI S Phase IC50/EC50: 0.1428 µM
DLD-1
  Basal_Viability ATP DLD-1 IC50/EC50: 5.6318 µM
SW480
  Basal_Viability ATP SW480 IC50/EC50: 12.0548 µM
HCT116
  Basal_Viability ATP HCT116 IC50/EC50: 13.6261 µM
[2]
  GSK3b inh pretreated_Viability ATP HCT116 IC50/EC50: > 20 µM
Colo320
  Basal_Viability ATP Colo 320 IC50/EC50: 12.5546 µM
HT-29
  Basal_Viability ATP HT-29 IC50/EC50: 2.5705 µM
RKO
  Basal_Viability ATP RKO IC50/EC50: 0.9953 µM
SNU-C1
  Basal_Viability ATP SNU-C1 IC50/EC50: 8.1272 µM
[3]
  VEGF_ADSC\ECFC Angio Hoechst NucArea IC50/EC50: 5.961 µM

Source: publication PMC4503722, “Novel Phenotypic Outcomes Identified for a Public Collection of Approved Drugs from a Publicly Accessible Panel of Assays” (PLoS ONE, 2015)
